This is an account of results in patent publication US9278925B2, “Substituted 3-(biphenyl-3-yl)-4-hydroxy-8-methoxy-1-azaspiro[4.5]dec-3-en-2-one” (BAYER INTELLECTUAL PROPERTY GMBH, priority 2011, dated 2016).

Series [1] relates to H460. Description: Tumour cell proliferation, CellTiter-Glo, 96 h. The conditions noted are these: 96-hour incubation. It counts as cell-based. The protocol:
(§1) In accordance with the invention, the substances were tested in cell-based assays for the ability of the substances of inhibiting tumour cell proliferation after a 96-hour incubation with the substance. Cell viability was tested using the CellTiter-Glo® luminescent cell viability assay (Promega). The cells were sown at a density of 2000-5000 cells/well (depending on the cell line) in 100 μl growth medium on 96-well microtitre plates. For each cell line examined, cells were sown on a separate plate to determine the luminescence at t=0 hours and t=96 hours. After overnight incubation at 37° C., the luminescence values for the t=0 samples were determined. The dose plates for the t=96 hours points in time were treated with substances diluted with growth medium. The cells were then incubated at 37° C. for 96 hours, and the luminescence values for the t=96 hours samples were then determined. For data analysis, the t=0 values were subtracted from the t=96 hours values for treated and untreated samples. The differences in luminescence in percent between substance-treated samples and control values were used to determine the growth inhibition in percent.
(§2) The substances were tested in the following cell lines which represent the stated indications in an exemplary manner: […]
Background: ATP-based viability assays read luminescence as a measure of living cells.

Series [2] relates to KM12. Put plainly: Tumour cell proliferation, CellTiter-Glo, 96 h. It counts as cell-based. The conditions noted are these: 96-hour incubation. The protocol:
as §1, §2

Series [3] deals with MCF7. Description: Tumour cell proliferation, CellTiter-Glo, 96 h. It counts as cell-based. The conditions noted are these: 96-hour incubation. The protocol: as §1, §2
The test system of series [4] is PC3. Put plainly: Tumour cell proliferation, CellTiter-Glo, 96 h. It counts as cell-based. The conditions noted are these: 96-hour incubation. On the procedure:
as §1, §2

Series [5] in a line: Octanol/water distribution coefficient (logP/D), isocratic HPLC method. It counts as physicochemical. The conditions noted are these: for chromatographic logP: octanol/water, pH 7.4, pH7.4. From the text: Assay for Determining the Octanol/Water Distribution Coefficient (logP/D): The distribution coefficient octanol/water P or D is a key parameter for estimating membrane penetration and permeability. It is defined as the ratio of the equilibrium concentrations of a substance in the two-phase system octanol/water. [formula] P=partition D=distribution c(octanol)=concentration of the substance in the octanol phase c(water)=concentration of the substance in the aqueous phase It is usually stated in form of the decadic logarithm (logP or logD). logP describes the distribution behaviour of a substance exclusively present in its neutral form. logD describes the distribution behaviour of a substance at a certain pH; depending on the ionisation constant pKa of the substance, some of the substance may be present in ionic form, and some in neutral form. The logP/D of the active compounds was determined using an isocratic HPLC method (HPLC=high performance liquid chromatography) (literature: OECD Guideline for Testing of Chemicals No. 117). The method is based on the correlation of the HPLC retention time of the test substance to that of reference substances with known distribution coefficients. […] The nine reference substances were dissolved individually in methanol. 100 μl each of the stock solutions were added to an HPLC vial and mixed with 300 μl of water. [table] A formamide solution was used to determine the hold-up time. To this end, 7 mg of formamide were dissolved in 10 ml of methanol. 100 μl of this stock solution were mixed with 500 μl of methanol and 200 μl of water. […] [table] [table] Injection Protocol: formamide, references, test substance 1, test substance 2, . . . , formamide, references. Evaluation of the retention times was carried out in a diode array detector (DAD) at 200-400 nm Via the molecular mass, the identity of the test substance was checked using the downstream mass spectrometer. The HPLC run was evaluated using the Waters software Masslynx 4.1. The logP/D values were calculated using the software “POW Determination” (proprietary development).

Series [6] addresses human serum albumin (HSA) (Homo sapiens (Human), UniProt P02768). Description: Protein binding to human serum albumin (HSA-Transil). The conditions noted are these: buffer pH 7.4. On the procedure:
Assays for Determining Membrane Affinity logMA and Protein Binding to Human Serum Albumin (HSA): Determination of membrane affinity and protein binding to human serum albumin (HSA) was carried out via Transil technology (literature: A. Loidl-Stahlhofen, A. Eckert, T. Hartmann, M. […] Pharm Sci 90, 599-606 (2001)). Transil® (commercially available from Sovicell in Leipzig, Germany) are glass beads (diameter 10-12 μm) coated with a double-layer membrane of phosphatidylcholine (MA-Transil) or covalently attached human serum albumin (HSA-Transil). To determine the logMA and the protein binding constant to HSA, the commercially available TRANSIL Intestinal Absorption & HSA Binding Combined Assay Kit was used. This is a 96-well microtitre plate (96 well-MTP) which is filled with Transil and can be used to determine MA-Transil and HSA-Transil binding of in each case eight active compounds. […] Two wells serve as reference and are only filled with buffer pH 7.4. Five further wells contain MA-Transil in various increasing concentrations, the five remaining wells contain HSA-Transil in various increasing concentrations. To determine binding of an active compound to Transil, the supernatant of the wells with Transil was quantified against the reference solution without Transil via HPLC-MS coupling (HPLC-MS=high performance liquid chromatography/mass spectrometry). This is how the individual steps of the assay were carried out: From the internal substance store, the active compounds were delivered in a 96-well MTP. This plate is referred to as mother plate. […] Warfarin, whose membrane affinity and binding to HSA is known, serves to check whether the measurement is correct. […] Using a Hamilton pipetting robot Microlab STAR, the 96 active compounds from the daughter plate were divided onto 12 Transil plates in total. From each well of the daughter plate, 12 times 20 μl were removed. The concentration of each well of the Transil plate was 0.25 μmol/liter, which corresponds to a dilution of 1 to 10. […] The filled Transil plates were each resuspended for two minutes, then allowed to stand at room temperature for at least two minutes and then centrifuged at 600 rotations per minute for five minutes. The pipetting robot was then used to remove 20 μl of supernatant from each well of the Transil plate and to transfer these to a separate microtitre plate. […] Prior to quantification of the active compounds by HPLC-MS, an optimization has to be carried out for each active compound where by way of a single injection daughter ion and optimum electrical voltages are determined. […] This microtitre plate was measured by HPLC-MS using the software Discovery Quant Optimize from AB Sciex. The three pooled microtitre plates were measured by HPLC-MS using the software Discovery Quant Analyze from AB Sciex. • Sciex Triple Quad 5500 mass spectrometer (from AB Sciex) • PAL Autosampler DLW Option Software: Analyst 1.4 (from AB Sciex) • Discovery Quant Optimize (from AB Sciex) • Discovery Quant Analyze (from AB Sciex) Optimization: […] Column: Poroshell 120 SB-C18 2.7 μm 3×30 mm Injection volume: 2 μl Flow rate: 1 ml/min: […] Evaluation of the HPLC peaks was carried out using Discovery Quant Analyze. The results (logMA and binding constant to HSA Kd) were calculated using an Excel workbook provided by Sovicell.

human serum albumin (HSA), sequence (P02768 25-609): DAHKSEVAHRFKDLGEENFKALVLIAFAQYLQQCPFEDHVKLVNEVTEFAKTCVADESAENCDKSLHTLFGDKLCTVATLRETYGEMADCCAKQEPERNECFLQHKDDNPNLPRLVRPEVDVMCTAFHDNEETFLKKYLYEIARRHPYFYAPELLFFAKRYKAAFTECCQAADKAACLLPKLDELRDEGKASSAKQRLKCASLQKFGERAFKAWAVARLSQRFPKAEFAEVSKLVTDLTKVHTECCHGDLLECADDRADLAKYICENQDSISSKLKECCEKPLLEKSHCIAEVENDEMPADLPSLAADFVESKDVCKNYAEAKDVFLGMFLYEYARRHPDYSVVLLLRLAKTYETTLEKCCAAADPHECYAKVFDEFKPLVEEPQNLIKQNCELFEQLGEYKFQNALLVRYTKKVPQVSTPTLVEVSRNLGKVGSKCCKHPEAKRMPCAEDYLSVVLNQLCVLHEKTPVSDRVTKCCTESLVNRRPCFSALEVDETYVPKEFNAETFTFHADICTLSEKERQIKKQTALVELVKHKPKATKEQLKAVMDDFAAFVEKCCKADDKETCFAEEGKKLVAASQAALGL

What is called IC50 is the concentration needed to halve the response being measured. Low readings indicate greater potency in that assay, high ones weaker potency in that assay. As a reminder, the chromatographic logP is lipophilicity estimated from chromatographic retention. Lower therefore signals lower lipophilicity. As a reminder, the Kd is the equilibrium constant for the complex coming apart. In the case of `COC[C@]1(OC)CC[C@@]2(CC1)NC(=O)C(c1cc(-c3ccc(Cl)c(F)c3)ccc1C)=C2O` [Example 1-4, (5r,8r)-3-(4′-Chloro-3′-fluoro-4-methylbiphenyl-3-yl)-4-hydroxy-8-methoxy-8-(methoxymethyl)-1-azaspiro[4.5]dec-3-en-2-one], the 50% inhibitory concentration (IC50) in series [1] (Homo sapiens, NCI-H460) turned out to be 333 nM; in series [2] (Homo sapiens, KM12), 96 nM; in series [3] (Homo sapiens, MCF7) it was 48 nM; in series [4] (Homo sapiens, PC-3) it was 120 nM. The chromatographic logP in series [5] came to 2.38. Further, the Kd in series [6] came to 2850 nM.
For `COC[C@H]1CC[C@]2(CC1)NC(=O)C(c1cc(-c3ccc(Cl)cc3)ccc1C)=C2O` [V.3-b, (5s,8s)-3-(4′-Chloro-4-methylbiphenyl-3-yl)-4-hydroxy-8-(methoxymethyl)-1-azaspiro[4.5]dec-3-en-2-one], the concentration for half-maximal inhibition (IC50) in series [1] (Homo sapiens, NCI-H460) worked out at 67 nM; in series [2] (Homo sapiens, KM12), 31 nM; in series [3] (Homo sapiens, MCF7), 23 nM; in series [4] (Homo sapiens, PC-3) it was 36 nM. In addition, the chromatographic logP in series [5] amounted to 2.5. The same compound returned a Kd in series [6] of 4200 nM.
Turning to `CO[C@]1(C)CC[C@]2(CC1)NC(=O)C(c1cc(-c3ccc(Cl)c(F)c3)ccc1C)=C2O` [Example V.2-a, (5r,8r)-3-(4′-Chloro-3′-fluoro-4-methylbiphenyl-3-yl)-4-hydroxy-8-methoxy-8-methyl-1-azaspiro[4.5]dec-3-en-2-one], the 50% inhibitory concentration (IC50) in series [1] turned out to be 82 nM; in series [2], 73 nM; in series [3] it was 32 nM; in series [4], 46 nM. Moreover, the “logP/D pH7.4” value in series [5] worked out at 2.52. This compound returned a dissociation constant (Kd) in series [6] of 2800 nM.
For `COC[C@]1(OC)CC[C@@]2(CC1)NC(=O)C(c1cc(-c3ccc(Cl)cc3)ccc1C)=C2O` [Example 1-3, (5r,8r)-3-(4′-Chloro-4-methylbiphenyl-3-yl)-4-hydroxy-8-methoxy-8-(methoxymethyl)-1-azaspiro[4.5]dec-3-en-2-one], the IC50 in series [1] (Homo sapiens, NCI-H460) is 365 nM; in series [2] (Homo sapiens, KM12), 222 nM; in series [3] (Homo sapiens, MCF7) it was 45 nM; in series [4] (Homo sapiens, PC-3), 194 nM. In series [5], this compound gave a chromatographic logP of 2.3. Moreover, the Kd in series [6] came out at 4800 nM.
Turning to `CO[C@]1(C(F)(F)F)CC[C@]2(CC1)NC(=O)C(c1cc(-c3ccc(Cl)cc3)ccc1C)=C2O` [Example 1-1, (5r,8r)-3-(4′-Chloro-4-methylbiphenyl-3-yl)-4-hydroxy-8-methoxy-8-(trifluoromethyl)-1-azaspiro[4.5]dec-3-en-2-one], the half-inhibitory concentration (IC50) in series [1] (Homo sapiens, NCI-H460) was 88 nM; in series [2] (Homo sapiens, KM12), 21 nM; in series [3] (Homo sapiens, MCF7), 26 nM; in series [4] (Homo sapiens, PC-3), 29 nM. In addition, in series [5], the chromatographic logP is 2.44. The compound further had a Kd in series [6] of 1730 nM.
For `COC[C@H]1CC[C@]2(CC1)NC(=O)C(c1cc(-c3ccc(Cl)c(F)c3)ccc1C)=C2O` [V.4-b, (5s,8s)-3-(4′-Chloro-3′-fluoro-4-methylbiphenyl-3-yl)-4-hydroxy-8-(methoxymethyl)-1-azaspiro[4.5]dec-3-en-2-one], the IC50 in series [1] (Homo sapiens, NCI-H460) worked out at 43 nM; in series [2] (Homo sapiens, KM12), 35 nM; in series [3] (Homo sapiens, MCF7), 20 nM; in series [4] (Homo sapiens, PC-3) it was 30 nM. In series [5], this compound registered a chromatographic logP of 2.57. In addition, binding in series [6] was put at a Kd of 3640 nM.
`Cc1ccc(-c2ccc(Cl)c(F)c2)cc1C1=C(O)[C@]2(CC[C@](O)(C(F)(F)F)CC2)NC1=O` [V.2-c, (5r,8r)-3-(4′-Chloro-3′-fluoro-4-methylbiphenyl-3-yl)-4,8-dihydroxy-8-(trifluoromethyl)-1-azaspiro[4.5]dec-3-en-2-one]: the IC50 came out at 2120 nM in series [1] (Homo sapiens, NCI-H460); 2370 nM in series [2] (Homo sapiens, KM12); 767 nM in series [4] (Homo sapiens, PC-3). In series [5], this compound came in with a chromatographic logP of 1.3. For the same compound, the Kd in series [6] came to 1380 nM.
As to `CO[C@]1(C(F)(F)F)CC[C@]2(CC1)NC(=O)C(c1cc(-c3ccc(Cl)c(F)c3)ccc1C)=C2O` [Example 1-2, (5r,8r)-3-(4′-Chloro-3′-fluoro-4-methylbiphenyl-3-yl)-4-hydroxy-8-methoxy-8-(trifluoromethyl)-1-azaspiro[4.5]dec-3-en-2-one], the IC50 in series [1] (Homo sapiens, NCI-H460) was 104 nM; in series [2] (Homo sapiens, KM12), 14 nM; in series [3] (Homo sapiens, MCF7), under 14 nM; in series [4] (Homo sapiens, PC-3), 22 nM. In addition, the chromatographic logP in series [5] stood at 2.45. The equilibrium dissociation constant (Kd) in series [6] is 1790 nM.
As to `CO[C@]1(C)CC[C@]2(CC1)NC(=O)C(c1cc(-c3ccc(Cl)cc3)ccc1C)=C2O` [Example V.1-a, (5r,8r)-3-(4′-Chloro-4-methylbiphenyl-3-yl)-4-hydroxy-8-methoxy-8-methyl-1-azaspiro[4.5]dec-3-en-2-one], the 50% inhibitory concentration (IC50) in series [1] came out at 79 nM; in series [2] it was 38 nM; in series [3] it was 23 nM; in series [4] it was 35 nM. Besides, the “logP/D pH7.4” value in series [5] was 2.51. In series [6], this compound showed a dissociation constant Kd of 4840 nM.
On to `Cc1ccc(-c2ccc(Cl)cc2)cc1C1=C(O)[C@]2(CC[C@](O)(C(F)(F)F)CC2)NC1=O` [V.1-c, (5r,8r)-3-(4′-Chloro-4-methylbiphenyl-3-yl)-4,8-dihydroxy-8-(trifluoromethyl)-1-azaspiro[4.5]dec-3-en-2-one], for which the IC50 in series [1] (Homo sapiens, NCI-H460) was found to be 1870 nM; in series [2] (Homo sapiens, KM12), 827 nM; in series [4] (Homo sapiens, PC-3), 275 nM. The compound also showed a chromatographic logP in series [5] of 1.6. Besides, binding in series [6] was characterised by a dissociation constant (Kd) of 6900 nM.
